From patent US6465614B1, “High-affinity response-selective C-terminal analogs of C5a anaphylatoxin” (priority 1994, dated 2002)
Read-outs that look alike come from different tables or passages of the source. Ends that are not written are not given here.

What was measured:
human fetal artery = target: T1, human fetal artery (Homo sapiens, UniProt P21730); assay: Smooth muscle contraction of human fetal artery (spasmogenic assay); format: cell-based; conditions: for log potency ratio at the EC50 level compared to C5a / % of C5a potency: fetal artery; for % of C5a potency: from log potency ratio at EC50 level
T1 sequence (P21730 1-350): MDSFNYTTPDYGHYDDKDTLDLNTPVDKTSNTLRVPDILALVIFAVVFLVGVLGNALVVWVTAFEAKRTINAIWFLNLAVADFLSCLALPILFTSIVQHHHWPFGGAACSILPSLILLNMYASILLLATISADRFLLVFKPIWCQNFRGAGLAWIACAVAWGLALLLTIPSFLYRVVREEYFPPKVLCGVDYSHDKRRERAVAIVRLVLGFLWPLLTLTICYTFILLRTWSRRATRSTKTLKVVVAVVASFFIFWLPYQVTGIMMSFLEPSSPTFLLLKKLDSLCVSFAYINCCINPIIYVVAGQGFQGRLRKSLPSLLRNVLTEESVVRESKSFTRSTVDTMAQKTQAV
Protocol: (§1) Tissue strips were suspended in 2 ml organ baths, containing physiological salt solution (Krebs-Ringers solution: 118 mM NaCl, 4.7 mM KCl, 2.5 mM CaCl2, 25 mM NaHCO3, 1.2 mM KH2PO4, 1.2 mM MgSO4, 10 mM Glucose) maintained at 37° C., pH 7.4 and continuously aerated with a 95% CO2 mixture. Each tissue preparation was equilibrated for 1 hr prior to testing with peptides. All drugs were kept on ice during the procedure and isometric tensions were measured using strain-gauge transducers (Grass FT-03) with a computerized chart recording system (MacLab/8). After the contraction to each peptide reached a plateau, histamine (10 μM) was added to obtain the maximum tissue response. Because tachyphylaxis occurs rapidly to single doses of C5a or peptides, cumulative dose-response curves could not be obtained. Instead, the dose-response profile was compiled from multiple strips from each tissue. After exposing each strip to a single concentration of the peptide followed by supramaximal histamine, the response was expressed as a percentage of the maximal contraction to histamine. Full dose-response curves for C5a (human recombinant C5a; Sigma) or individual peptides were performed in each experiment for each tissue and the EC50 values (i.e., concentration of peptide producing 50t of the maximal response to each peptide) obtained by probit analysis. pD2 transforms [−log EC50 (M)] were calculated for each dose-response curve, and means ±SE obtained for each peptide.
Human umbilical cords were obtained from the Mater Misericordiae Hospital, South Brisbane, Queensland within minutes of delivery. The mid-section of the umbilical cord was cut from the placenta, placed in physiological salt solution and stored at 5° C. for up to 24 hrs. […] The fetal arteries were dissected out and cut into longitudinal strips. The intimal surface of the arteries was rubbed with a cotton bud to remove the endothelium. Strips approximately 2 cm×3 mm were suspended in organ baths under 20 mN of resting tension. Arterial strips were tested repeatedly with peptides following a 60 min drug-free period of rest between assays (Taylor et al. (1994), Inflammation, in press).

guinea-pig platelets = assay: Guinea-pig platelet aggregation assay; format: cell-based; conditions: for Platelet Aggreg (threshold concentration producing visible platelet aggregation): guinea-pig platelets, threshold response
Protocol: This assay was performed on platelets obtained from the arterial blood of anesthetized male Hartley guinea pigs according to previously published methods (Ember et al., 1992, supra). Briefly, platelet-rich plasma was prepared and diluted to 3×10^8 platelets/ml in 0.39% sodium citrate solution. Peptide samples were diluted in a stepwise fashion in 1.5-fold dilutions and placed in 96-well microplates. A […] peptide sample, […] of platelet-rich plasma, and one 3 mm glass bead were placed in each well. The plates were shaken horizontally at 100 rpm for 5 min at 37° C. Platelet aggregation was evaluated visually in an inverted microscope at 40× magnification. The greatest dilution of peptide producing visible aggregation was scored as the threshold concentration for activity. Natural C5a and C3a were included as internal standards. At least three independent duplicate determinations were conducted for every peptide.

[1] = tested on: guinea-pig lung parenchyma; assay: Smooth muscle contraction of guinea-pig lung parenchyma; format: cell-based; conditions: arithmetic mean
Protocol: as §1, with “Each” for “Tissue strips were suspended in 2 ml organ baths, containing physiological salt solution (Krebs-Ringers solution: 118 mM NaCl, 4.7 mM KCl, 2.5 mM CaCl2, 25 mM NaHCO3, 1.2 mM KH2PO4, 1.2 mM MgSO4, 10 mM Glucose) maintained at 37° C., pH 7.4 and continuously aerated with a 95% CO2 mixture. Each”

human neutrophils (PMN) [2] = target: T2, human neutrophils (PMN) (Homo sapiens, UniProt P21730); format: cell-based; conditions: human neutrophils; read-out: PMN Polarization EC50
T2 sequence (P21730 1-350): T1 sequence (P21730 1-350)
Protocol: Neutrophil polarization assays were conducted as described by Ember et al., 1992, supra. Human neutrophils (PMN) were prepared according to the procedure described by Dahinden et al. (1979), J. Immunol., 130: 857-862. The assay for measuring the effect of C5a analogs on PMN polarization was described by Haston & Shields (1985), J. Immunol. Methods, 81: 229-237. Briefly, PMN (1×10^6 cells/ml) were suspended in 10 mM 3- (N-morpholino) propane sulfonic acid (Sigma Chemical Co.) containing EBSS. […] After 10 minutes of incubation at room temperature, the cells were washed twice and stored until microscopic examination. Cells deviating from the typical spherical shape were visually scored as polarized. Results are expressed as percent of polarized cells per total cells counted (300 cells counted/sample).

human neutrophils (PMN) [3] = target: T2, human neutrophils (PMN); format: cell-based; conditions: human neutrophils, β-glucuronidase release; read-out: PMN Enzyme Release EC50
Protocol: The release of glucuronidase from human neutrophils was determined as described by Schroder et al. (1987), J. Immunol., 139: 3474-3483. Briefly, human neutrophils were pretreated with cytochalasin B (5 μg/ml, 10 min, 37° C.). The cells (10^6) were incubated in the presence of stimulants for 60 minutes at 37° C. in a final volume of 200 μl and then centrifuged. The supernatant was collected and 50 μl were incubated with 50 μl of 0.01 M P-nitrophenyl-β-D-glucuronide (in 0.1 M sodium acetate at pH 4 for 18 h) as triplicate determinations in 96-well microtiter plates (Corning). The reaction was stopped by addition of 100 μl of 0.4 M gly buffer at pH 10. The reaction developed color that was read at 405 nm in a Titertec Multiscan (MCC/340) ELISA reader. The β-glucuronidase released was expressed as the percentage of total enzyme in the cell that could be released by addition of 0.2% Triton X-100 (Pierce).

serum carboxypeptidases = assay: Stability toward serum carboxypeptidases (incubation in normal human serum, HPLC); format: in vitro ADME; conditions: 37° C., 1 h
Protocol: FIG. 10. HPLC profiles of decapeptide analogs. FIG. 10A: HPLC of […] (peptide/Sequence I.D. No. 2); a=purified peptide; b=des-Arg peptide ([…]; Sequence I.D. No. 24); c=des-Arg peptide in saline, no incubation; d=des-Arg peptide in saline with incubation for 1 h at 37° C.; e=des-Arg peptide in normal human serum with incubation for 1 h at 37° C. FIG. 10B: HPLC of […]aR (Sequence I.D. No. 10); a=purified peptide; b=peptide in saline, no incubation; c=peptide in saline with incubation for 1 h at 37° C.; d=peptide in normal human serum with incubation for 1 h at 37° C. Solvent system 1: 70 mM triethylamine/phosphoric acid buffer, pH-2.3. Solvent system 2: 60% acetonitrile in the Solvent 1 buffer. Linear gradient of 30-50% solvent 2 at.1%/min, slope=1 ml/min, absorbance monitored at 214 nm.
Both peptides were incubated in normal human serum at 37° C. for 1 h and thereafter reanalyzed on HPLC.

Row | Compound | log potency ratio at the EC50 level compared to C5a (human fetal artery) | % of C5a potency (human fetal artery) | potency relative to the C-terminal 19-mer of natural sequence (human fetal artery; smooth muscle contraction of human fetal artery (FIG. 1)) | Platelet Aggreg (threshold concentration producing visible platelet aggregation) (guinea-pig platelets) | EC50 [1] | EC50 (human neutrophils (PMN) [2]) | EC50 (human neutrophils (PMN) [3]) | potency relative to peptide 2 in spasmogenic activity (human fetal artery; more potent than peptide 2) | potency relative to peptide 2 in platelet aggregation (guinea-pig platelets; more potent than peptide 2) | cleavage of the C-terminal Arg (serum carboxypeptidases)
1 | YSFKDMQLGR-OH [peptide 2] | 2.78±0.10 | 0.2% | about 20 times | 22.9 µM | 28.4 µM | 4 µM | 50 µM | – | – | –
2 | CSCC[C@H](NC(=O)[C@H](CC(=O)O)NC(=O)[C@H](CCCCN)NC(=O)[C@H](Cc1ccccc1)NC(=O)[C@H](CO)NC(=O)[C@@H](N)Cc1ccc(O)cc1)C(=O)N1CCC[C@H]1C(=O)N[C@@H](CC(C)C)C(=O)N[C@H](C)C(=O)N[C@@H](CCCNC(=N)N)C(=O)O [peptide 10] | 1.42±0.13 | 4% | – | 1.3 µM | – | 2.1 µM | 57.7 µM | about 32 fold | about 18 fold | none
